The assay concerns the target factor Xa (Bos taurus, UniProt P00743). Put plainly: kinetic amidolytic. Format: biochemical.

The term IC50 denotes the midpoint of a concentration-inhibition curve. Low values mean greater potency, high ones weaker potency.

factor Xa, sequence (P00743 41-180): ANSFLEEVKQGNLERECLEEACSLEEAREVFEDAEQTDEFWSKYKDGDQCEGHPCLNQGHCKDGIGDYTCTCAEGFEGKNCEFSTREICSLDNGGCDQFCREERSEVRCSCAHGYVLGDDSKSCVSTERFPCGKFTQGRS
factor Xa, sequence (P00743 234-492): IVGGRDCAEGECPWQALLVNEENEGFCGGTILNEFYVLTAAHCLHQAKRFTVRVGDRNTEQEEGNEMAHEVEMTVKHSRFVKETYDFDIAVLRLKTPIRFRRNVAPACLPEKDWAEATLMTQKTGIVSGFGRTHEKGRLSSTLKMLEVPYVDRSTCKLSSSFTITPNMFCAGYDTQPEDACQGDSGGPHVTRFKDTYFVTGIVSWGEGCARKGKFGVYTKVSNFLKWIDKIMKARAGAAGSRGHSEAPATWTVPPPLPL

In the case of `COc1ccc(NC(=O)c2ccc(C(=N)N(C)C)cc2)c(C(=O)Nc2ccc(Cl)cn2)c1` [Betrixaban], the IC50 turned out to be 2.88 µM.

The values above are taken from publication PMC6714936 (Clinical and Applied Thrombosis/Hemostasis, 2019).
